Laboratory results from patent US20050043214A1, “Antiglaucomatous agent and use thereof” (priority 2001, published 2005).

Tested on: Patients with glaucoma
Test: Intraocular pressure of glaucoma patients measured by applanation tonometry during eyedrop treatment
Type: in vivo, human
Details: average of last six measurements
Experimental: Patients with glaucoma which had led to glaucomatous damage were treated. All the patients had previously been treated with timolol 0.5% eyedrops, and in some cases with a combination therapy of timolol 0.5% and another antiglaucomatous agent. The initial state of the intraocular pressure was measured during the previous therapy by determining the average of the last six measurements during the previous therapy. Two groups of patients were then treated according to the invention. […] They formed the group of decompensated glaucomas. Group 2 comprised patients who had normalized intraocular pressures on treatment with timolol 0.5%. They formed the group of compensated glaucomas. […] A third group formed of 11 patients was treated in the same manner with eyedrops which contained only 0.5% lactalbumin hydrolyzate fraction from example 5. The intraocular pressure was checked initially after one day, after two days and then weekly. The measurements of intraocular pressure took place at various times of day (morning, midday, late afternoon) by applanation tonometry. In total, 18 patients with an average age of 56.6 years, of whom 8 were male and 10 patients were female, were treated for 9 weeks.

Question: Which results are given for `CC(C)(C)NC[C@H](O)COc1nsnc1N1CCOCC1` [timolol]?
Answer: average intraocular pressure by applanation before the treatment according to the invention (group 1 decompensated glaucomas, on timolol 0.5% or combination therapy with another antiglaucomatous agent, range of variation 3.6 mmHg): 26.4 mmHg; average intraocular pressure by applanation before the treatment according to the invention (group 2 compensated glaucomas, on timolol 0.5%, range of variation 1.6 mmHg): 19.2 mmHg
